Measurements reported in patent US9216968B2, “Heterocyclic derivative and pharmaceutical drug” (NIPPON SHINYAKU CO., LTD., priority 2011, dated 2015).
Structures can show the parent of a compound that is named as a salt.

Assays:
A549 cells = test: Inhibition of PGE2 production in A549 cell (IL-1β stimulated); format: cell-based, human; details: Homo sapiens, A549, 24 h, IL-1β 5 ng/well, PGE2 in culture medium
Procedure: Human A549 cells were seeded onto a 96-well plate at 2×10^4 cells/100 μL per well and allowed to incubate overnight. After removing the culture medium and washing with phosphate buffered saline, the culture medium was replaced by RPMI culture medium with 3% FBS containing a DMSO solution containing test compound or DMSO alone (such that DMSO final concentration would be […] in each). After incubation for 60 minutes, IL-1β (5 ng/well) was added and incubated at 37° C. for 24 hours. Then, PGE2 in the culture medium was measured using HTRF kit (Cisbio International, catalogue #62P2APEC), and PGF2α in the culture medium was measured using EIA kit (Cayman Chemical Company, catalogue #516011). The solution free of test compound was used as positive control, and the solution free of test compound and IL-1β was used as negative control. 100% activity was defined as PGE2 and PGF2α production in the positive control minus PGE2 and PGF2α production in the negative control. IC50 value was calculated by standard method.

human mPGES-1 = human mPGES-1 (Homo sapiens (Human), UniProt O14684); test: mPGES-1 inhibiting activity (microsome fractions, PGE2 by HTRF); format: biochemical; details: microsomes from CHO-K1 cells transfected with human mPGES-1; PGH2 1 μM, 4° C., 60 seconds; read-out: mPGES-1 Inhibition IC50
Chain of human mPGES-1 (O14684 whole entry): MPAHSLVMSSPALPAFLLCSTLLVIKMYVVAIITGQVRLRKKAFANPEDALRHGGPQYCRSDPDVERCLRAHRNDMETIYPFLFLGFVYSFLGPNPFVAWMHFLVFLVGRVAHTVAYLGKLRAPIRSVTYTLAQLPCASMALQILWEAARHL
Procedure: mPGES-1 microsome fractions were prepared from CHO-K1 cells transiently transfected with plasmid encoding the human mPGES-1cDNA. Microsomes were diluted with potassium phosphate buffer containing reduced glutathione (pH7.4), and DMSO containing test compound or DMSO alone was added (such that DMSO final concentration would be 1% in each) and incubated at 4° C. for 20 minutes. Then, the enzymatic reactions were initiated by the addition of PGH2 substrate (final concentration 1 μM) and incubated at 4° C. for 60 seconds. The reaction was terminated by the addition of a citrate solution (final citrate concentration 50 mM) containing ferric chloride (final concentration 1 mg/mL). PGE2 production in the enzyme reaction aliquot was measured using HTRF kit (Cisbio International, catalogue #62P2APEC). The solution free of test compound was used as positive control, and the solution free of test compound and microsome sample was used as negative control. 100% activity was defined as PGE2 production in the positive control minus PGE2 production in negative control. IC50 value was calculated by standard method.

SMILES | IC50 (A549 cells) [nM] | IC50 (human mPGES-1) [nM]
COCc1nc2c(C(=O)NCc3ccc(C)cc3)cc(NC(=O)c3ccccc3C(F)(F)F)cc2[nH]1 [Example 25, 2-(Methoxymethyl)-N-(4-methylbenzyl)-6-({[2-(trifluoromethyl)phenyl]carbonyl}amino)-1H-benzimidazole-4-carboxamide hydrochloride] | 850 | 89
COCc1nc2c(C(=O)Nc3cccc(Cl)c3C)cc(NC(=O)c3ccccc3C(F)(F)F)cc2n1C [Example 90, N-(3-Chloro-2-methylphenyl)-2-(methoxymethyl)-1-methyl-6-({[2-(trifluoromethyl)phenyl]carbonyl}amino)-1H-benzimidazole-4-carboxamide] | 348 | 118
COCc1nc2c(C(=O)Nc3ccc(OC)cc3)cc(NC(=O)c3ccccc3C(F)(F)F)cc2[nH]1 [Example 37, 2-(Methoxymethyl)-N-(4-methoxyphenyl)-6-({[2-(trifluoromethyl)phenyl]carbonyl}amino)-1H-benzimidazole-4-carboxamide] | 265 | 23.3
COCc1nc2c(C(=O)Nc3cccc(Cl)c3C)cc(NC(=O)c3cc(CCC4CC4)ccc3Cl)cc2[nH]1 [Example 122, 6-({[2-Chloro-5-(2-cyclopropylethyl)phenyl]carbonyl}amino)-N-(3-chloro-2-methylphenyl)-2-(methoxymethyl)-1H-benzimidazole-4-carboxamide] | > 1000 | 9.7
Cc1c(Cl)cccc1NC(=O)c1cc(NC(=O)c2ccccc2C(F)(F)F)cc2[nH]c(NCCOC(C)(C)C)nc12 [Example 176, 2-[(2-tert-Butoxyethyl)amino]-N-(3-chloro-2-methylphenyl)-6-({[2-(trifluoromethyl)phenyl]carbonyl}amino)-1H-benzimidazole-4-carboxamide hydrochloride] | 138 | 0.3
COCc1nc2c(C(=O)NC3CCCCC3)cc(NC(=O)c3ccccc3C(F)(F)F)cc2[nH]1 [Example 20, N-Cyclohexyl-2-(methoxymethyl)-6-({[2-(trifluoromethyl)phenyl]carbonyl}amino)-1H-benzimidazole-4-carboxamide] | 98 | 5.6
COCc1nc2c(C(=O)Nc3ccc(C)cc3Cl)cc(NC(=O)c3ccccc3C(F)(F)F)cc2[nH]1 [Example 30, N-(2-Chloro-4-methylphenyl)-2-(methoxymethyl)-6-({[2-(trifluoromethyl)phenyl]carbonyl}amino)-1H-benzimidazole-4-carboxamide hydrochloride] | 210 | 1.8
Cc1c(Cl)cccc1NC(=O)c1cc(NC(=O)c2ccccc2C(F)(F)F)cc2[nH]c([C@@H]3CCCN3C(=O)OC(C)(C)C)nc12 [Example 69, tert-Butyl (2S)-2-{4-[(3-chloro-2-methylphenyl)carbamoyl]-6-({[2-(trifluoromethyl)phenyl]carbonyl}amino)-1H-benzimidazol-2-yl}pyrrolidine 1-carboxylate] | 21.6 | 10
COCc1nc2c(C(=O)NC3CCC(F)(F)CC3)cc(NC(=O)c3ccccc3C(F)(F)F)cc2[nH]1 [Example 26, N-(4,4-Difluorocyclohexyl)-2-(methoxymethyl)-6-({[2-(trifluoromethyl)phenyl]carbonyl}amino)-1H-benzimidazole-4-carboxamide hydrochloride] | 872 | 172
Cc1c(Cl)cccc1NC(=O)c1cc(NC(=O)c2ccccc2C(F)(F)F)cc2[nH]c(NCCN3CCCC3)nc12 [Example 152, N-(3-Chloro-2-methylphenyl)-2-{[2-(pyrrolidin-1-yl)ethyl]amino}-6-({[2-(trifluoromethyl)phenyl]carbonyl}amino)-1H-benz imidazole-4-carboxamide hydrochloride] | 854 | 31.6
